Test system: 616215-338-R-J1-PDC complex spheroid viability
Assay: Anticancer human tumor 616215-338-R-J1-PDC patient-derived colon adenocarcinoma cell line growth inhibition [POLQ]
Conditions: for IC50: curve of first compound; for viability, T/C: stronger effect = lower value; active means viability on the fitted dose curve at most 10% of control; inactive means the rest
Description: Multicellular complex tumor spheroid response to Polymerase (POL) inhibitors (novobiocin, ART-558, RP6685) in combination with a variety of drugs and investigational agents in selected tumor cell lines
The POL inhibitors (novobiocin, ART-558, and RP6685) were evaluated both individually and in combination with standard of care and investigational anticancer small molecules within a complex spheroid model of solid tumors. . Complex spheroids include a stromal component modeled by human endothelial cells (HUVEC) and fibroblasts modeled by human mesenchymal stem cells (MSCs). The concentration ranges selected for each drug and investigational agent were based upon clinically achievable concentrations if the clinical Cmax of the agent was known.
Compounds. The drugs and investigational agents: novobiocin (NSC847541), ART-558 (NSC835418), RP-6685 (NSC848927), peposertib (NSC802822), ceralasertib (NSC780249), elimusertib (NSC800525), camonsertib (NSC841442), AZD-1390 (NSC803789), olaparib (NSC753686), talazoparib (NSC767125), rucaparib (NSC756644), sotorasib (NSC818433), MRTX-1133 (NSC836407), SN-38 (NSC673596), topotecan (NSC609699), epotoside (NSC141540), doxorubicin (NSC123127), gemcitabine (NSC613327), 5-fluorouracil (NSC19893), paclitaxel (NSC125973), vemurafenib (NSC761431), MSA-2 (NSC828583), SN-011 (NSC837082), adavosertib (NSC754352), prexasertib (NSC758257), carboplatin (NSC241240) and oxaliplatin (NSC266046), were obtained from the National Cancer Institute (NCI) Developmental Therapeutics Program Chemical Repository (21). The FDA-approved anticancer drug set is available from the Developmental Therapeutics Program at https://dtp.cancer.gov/organization/dscb/obtaining/. […] The stock solutions were prepared in dimethyl sulfoxide (DMSO, Sigma-Aldrich, St. Louis, MO, cat. D2650), except for the platinum compounds which were prepared in saline (Quality Biological, Gaithersburg, MD, cat. 114-055-101), at 800-fold the tested concentration and stored at -70 degrees C prior to their use. All drugs and investigational agents were tested over a range starting from a high concentration at or near the clinical Cmax and decreasing in half-log increments. If the clinical Cmax for an agent had not been determined, the highest concentration tested was 10 microM, except for SN-38, which was tested at a high concentration of 1 microM.
Cell Culture. All cells were maintained in an incubator at 37 degrees C and 5% CO2 with 95% humidity. The PDC lines were cultured according to standard operating procedures established by the NCI PDMR (https://pdmr.cancer.gov). Table 3 of the manuscript, lists the cell lines along with the number of the three cell types plated to form the mct-spheroids and media for tumor cell growth. After thawing, all PDC lines, except 997537-175-T-J1-PDC and 415267-285-R-J2-PDC, were cultured in Matrigel-coated flasks prepared with a working solution of 1X Ham's F-12 nutrient mix, without supplementation (Thermo Fisher Scientific, cat. 11765054), 100 U/mL penicillin-streptomycin (Thermo Fisher Scientific, cat. 15140122), and 2.5% Matrigel (Corning Inc., Corning, NY, cat. 354248) for the first three passages. The two PDC lines 997537-175-T-J1-PDC and 415267-285-R-J2-PDC were cultured on uncoated flasks. The 857933-349-R-J2-PDC line was cultured in 6C/Colon 1B media containing advanced DMEM/F-12 (Thermo Fisher Scientific, cat. 12634028), 10 mM HEPES (Thermo Fisher Scientific, cat. 15630080), 1X GlutaMAX supplement (Thermo Fisher Scientific, cat. 35050061), 0.1 mg/mL primocin (InvivoGen, San Diego, CA, cat. ant-pm-2), 10% defined fetal bovine serum, heat inactivated (HyClone Laboratories Inc., Logan, UT, cat. SH30070.03HI), 50% L-WRN conditioned media (ATCC, cat. CRL-3276), 1.25 mM N-Acetyl-L-cysteine (Sigma-Aldrich, cat. A9165), 10 mM nicotinamide (Sigma-Aldrich, cat. N0636), 1X B-27 supplement (Thermo Fisher Scientific, cat. 17504044), 1X N-2 supplement (Thermo Fisher Scientific, cat. […]

[1] = second compound 0.0316 µM, first compound 0.0316 µM
[2] = second compound 0.0316 µM, first compound 0.1 µM
[3] = second compound 0.0316 µM, first compound 0.316 µM
[4] = second compound 0.0316 µM, first compound 1 µM
[5] = second compound 0.1 µM, first compound 0.0316 µM
[6] = second compound 0.1 µM, first compound 0.1 µM
[7] = second compound 0.1 µM, first compound 0.316 µM
[8] = second compound 0.1 µM, first compound 1 µM
[9] = second compound 0.316 µM, first compound 0.0316 µM
[10] = second compound 0.316 µM, first compound 0.1 µM
[11] = second compound 0.316 µM, first compound 0.316 µM
[12] = second compound 0.316 µM, first compound 1 µM
[13] = second compound 1 µM, first compound 0.0316 µM
[14] = second compound 1 µM, first compound 0.1 µM
[15] = second compound 1 µM, first compound 0.316 µM
[16] = second compound 1 µM, first compound 1 µM
[17] = second compound 3.16 µM, first compound 0.0316 µM
[18] = second compound 3.16 µM, first compound 0.1 µM
[19] = second compound 3.16 µM, first compound 0.316 µM
[20] = second compound 3.16 µM, first compound 1 µM
[21] = second compound 10 µM, first compound 0.0316 µM
[22] = second compound 10 µM, first compound 0.1 µM
[23] = second compound 10 µM, first compound 0.316 µM
[24] = second compound 10 µM, first compound 1 µM
[25] = second compound 0.0316 µM, first compound 3.16 µM
[26] = second compound 0.0316 µM, first compound 10 µM
[27] = second compound 0.1 µM, first compound 3.16 µM
[28] = second compound 0.1 µM, first compound 10 µM
[29] = second compound 0.316 µM, first compound 3.16 µM
[30] = second compound 0.316 µM, first compound 10 µM
[31] = second compound 1 µM, first compound 3.16 µM
[32] = second compound 1 µM, first compound 10 µM
[33] = second compound 3.16 µM, first compound 3.16 µM
[34] = second compound 3.16 µM, first compound 10 µM
[35] = second compound 10 µM, first compound 3.16 µM
[36] = second compound 10 µM, first compound 10 µM
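Further: spheroids exposed to compounds for one week before readout.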
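Wherever viability, T/C is given: percent viability relative to DMSO vehicle wells taken as 100%.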

C=CCn1c(=O)c2cnc(Nc3ccc(N4CCN(C)CC4)cc3)nc2n1-c1cccc(C(C)(C)O)n1 + Nc1ccc(C#CCN(C(=O)Cc2ncc(C(F)(F)F)cc2C(F)(F)F)c2ccc(F)cc2)nn1
430 nM: IC50 (second compound 0.0316 µM)
359 nM: IC50 (second compound 3.16 µM)
302 nM: IC50 (second compound 0.316 µM)
inactive: viability, T/C (second compound 0.0316 µM, first compound 0.00316 µM) 102% | viability, T/C (second compound 0.0316 µM, first compound 0.01 µM) 98.7% | viability, T/C [1] 98.4% | viability, T/C [2] 96.9% | viability, T/C [3] 55.4% | viability, T/C [4] 35.4% | viability, T/C (second compound 0.1 µM, first compound 0.00316 µM) 102% | viability, T/C (second compound 0.1 µM, first compound 0.01 µM) 89.1% | viability, T/C [5] 96.8% | viability, T/C [6] 97.1% | viability, T/C [7] 45.3% | viability, T/C [8] 29.1% | viability, T/C (second compound 0.316 µM, first compound 0.00316 µM) 99.8% | viability, T/C (second compound 0.316 µM, first compound 0.01 µM) 111% | viability, T/C [9] 107% | viability, T/C [10] 83% | viability, T/C [11] 49.9% | viability, T/C [12] 28.1% | viability, T/C (second compound 1 µM, first compound 0.00316 µM) 98.9% | viability, T/C (second compound 1 µM, first compound 0.01 µM) 103% | viability, T/C [13] 100% | viability, T/C [14] 96.8% | viability, T/C [15] 53.2% | viability, T/C [16] 27.6% | viability, T/C (second compound 3.16 µM, first compound 0.00316 µM) 90% | viability, T/C (second compound 3.16 µM, first compound 0.01 µM) 97.9% | viability, T/C [17] 94.6% | viability, T/C [18] 87.9% | viability, T/C [19] 52.9% | viability, T/C [20] 27% | viability, T/C (second compound 10 µM, first compound 0.00316 µM) 79% | viability, T/C (second compound 10 µM, first compound 0.01 µM) 91.4% | viability, T/C [21] 91.1% | viability, T/C [22] 79.3% | viability, T/C [23] 41.4% | viability, T/C [24] 26.5%
365 nM: IC50 (second compound 1 µM)
244 nM: IC50 (second compound 10 µM)
285 nM: IC50 (second compound 0.1 µM)

COc1cc(C2c3cc4c(cc3C(OC3OC5COC(C)OC5C(O)C3O)C3COC(=O)C23)OCO4)cc(OC)c1O (stereo unspecified) + Nc1ccc(C#CCN(C(=O)Cc2ncc(C(F)(F)F)cc2C(F)(F)F)c2ccc(F)cc2)nn1
732 nM: IC50 (second compound 0.316 µM)
327 nM: IC50 (second compound 0.0316 µM)
489 nM: IC50 (second compound 1 µM)
inactive: viability, T/C [1] 106% | viability, T/C [2] 83.9% | viability, T/C [3] 46.2% | viability, T/C [4] 45.8% | viability, T/C [25] 41.9% | viability, T/C [26] 24.9% | viability, T/C [5] 107% | viability, T/C [6] 92.4% | viability, T/C [7] 57.6% | viability, T/C [8] 51.3% | viability, T/C [27] 36.4% | viability, T/C [28] 27.7% | viability, T/C [9] 108% | viability, T/C [10] 87.8% | viability, T/C [11] 65.4% | viability, T/C [12] 42.3% | viability, T/C [29] 35.9% | viability, T/C [30] 26.4% | viability, T/C [13] 98.4% | viability, T/C [14] 86.3% | viability, T/C [15] 56.5% | viability, T/C [16] 37% | viability, T/C [31] 36% | viability, T/C [32] 24.8% | viability, T/C [17] 94.7% | viability, T/C [18] 67.5% | viability, T/C [19] 48.6% | viability, T/C [20] 37.9% | viability, T/C [33] 38.3% | viability, T/C [34] 24.4% | viability, T/C [21] 83.4% | viability, T/C [22] 64% | viability, T/C [23] 49.8% | viability, T/C [24] 34.3% | viability, T/C [35] 32.3% | viability, T/C [36] 30.9%
268 nM: IC50 (second compound 10 µM)
314 nM: IC50 (second compound 3.16 µM)
812 nM: IC50 (second compound 0.1 µM)

COc1cccc2c1C(=O)c1c(O)c3c(c(O)c1C2=O)CC(O)(C(=O)CO)CC3OC1CC(N)C(O)C(C)O1 (stereo unspecified) + Nc1ccc(C#CCN(C(=O)Cc2ncc(C(F)(F)F)cc2C(F)(F)F)c2ccc(F)cc2)nn1
58.4 nM: IC50 (second compound 3.16 µM)
active: viability, T/C [25] 1.47% | viability, T/C [26] 1.5% | viability, T/C [27] 1.84% | viability, T/C [28] 0.12% | viability, T/C [29] 0.9% | viability, T/C [30] 0.55% | viability, T/C [31] 2.85% | viability, T/C [32] 0.37% | viability, T/C [33] 1.29% | viability, T/C [34] 0.18% | viability, T/C [35] 0.84% | viability, T/C [36] 0.33%
124 nM: IC50 (second compound 0.0316 µM)
< 31.6 nM: IC50 (second compound 0.1 µM) | IC50 (second compound 10 µM)
89.2 nM: IC50 (second compound 0.316 µM)
inactive: viability, T/C [1] 53.5% | viability, T/C [2] 50.3% | viability, T/C [3] 43.8% | viability, T/C [4] 20.9% | viability, T/C [5] 52% | viability, T/C [6] 46.5% | viability, T/C [7] 42.4% | viability, T/C [8] 26.1% | viability, T/C [9] 61.7% | viability, T/C [10] 41.8% | viability, T/C [11] 40.4% | viability, T/C [12] 22.4% | viability, T/C [13] 65.2% | viability, T/C [14] 40.4% | viability, T/C [15] 35.9% | viability, T/C [16] 23.1% | viability, T/C [17] 52.8% | viability, T/C [18] 48% | viability, T/C [19] 35.2% | viability, T/C [20] 23.5% | viability, T/C [21] 46.3% | viability, T/C [22] 38.1% | viability, T/C [23] 27.4% | viability, T/C [24] 14.9%
79.2 nM: IC50 (second compound 1 µM)
